Values of other authors, collected in patent publication US20260240156A1, “OIL-BASED DISPERSION COMPOSITIONS OF SOLID PARTICULATE HYGROSCOPIC OR WATER-SOLUBLE PESTICIDES” (priority 2023, published 2026).

Conditions: in water compared to non-aqueous systems

CC1=NNC(=O)N(/N=C/c2cccnc2)C1 [Pymetrozine, 6-methyl-4-[(E)-(pyridin-3ylmethylene)amino]-4,5-dihydro-2H-[1,2,4]-triazin-3-one]
Photodegradation: significantly faster in water compared to non-aqueous systems
